Measured values as given in PMC9963398, “Discovery of New Quinolone-Based Diarylamides as Potent B-RAF^V600E/C-RAF Kinase Inhibitors Endowed with Promising In Vitro Anticancer Activity” (International Journal of Molecular Sciences, 2023).
Like-named read-outs stand apart in the source and are kept apart here.

Tests used:
[1] = system: NCI-60 human tumor cell lines; experiment: NCI-60 five-dose testing, ranges over panel or subpanel; format: cell-based
Protocol: The anticancer screening of target compounds over a full panel of 60 human cancer cell lines was carried out using Sulforhodamine B (SRB) assay at the National Cancer Institute (NCI), Bethesda, Maryland, USA, employing the standard protocol.

B-RAF^V600K = biological target: T1, B-RAF^V600K (Homo sapiens, UniProt P15056, V600K); experiment: HotSpot kinase assay (RBC), B-RAF^V600K; format: biochemical; settings: 10 µM ATP
T1 construct: purchased Reaction Biology Corporation (RBC), Kinase HotSpot service
Protocol: To gain insight into the inhibitory mode of this new array of quinolines, 18a was tested at 1 µM concentration of ATP to compare it with its IC50 at 10 µM (Table 2).

[2] = system: NCI-60 human cancer cell lines; experiment: NCI-60 single dose (10 µM) testing; format: cell-based; settings: single dose 10 µM
Protocol: Encouraged by the promising results in the cell-free assay, the antiproliferative activity of all final compounds was evaluated by the National Cancer Institute (NCI) in a single dose of 10 µM over a library of 60 human cancer cell lines representing nine cancer types; leukemia, non-small cell lung (NSCL), colon, central nervous system (CNS), melanoma, ovarian, renal, prostate, and breast cancer.

UACC-257 = experiment: NCI-60 five-dose SRB assay; format: cell-based; settings: Homo sapiens; UACC-257, Melanoma, five-dose test
In short: (§1)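 Each compound was evaluated on sixty human cancer lines at the National Cancer Institute. Cell growth was determined with a sulforhodamine B read-out under the routine NCI protocol.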

NCI/ADR-RES = experiment: NCI-60 five-dose SRB assay; format: cell-based; settings: Homo sapiens, Ovarian cancer, five-dose test
In short: as §1

HOP-62 = experiment: NCI-60 five-dose SRB assay; format: cell-based; settings: Homo sapiens; HOP-62, NSCL cancer, five-dose test
In short: as §1

KM12 = experiment: NCI-60 five-dose SRB assay; format: cell-based; settings: Homo sapiens; KM12, Colon cancer, five-dose test
In short: as §1

SF-268 = experiment: NCI-60 five-dose SRB assay; format: cell-based; settings: Homo sapiens; SF-268, CNS cancer, five-dose test
In short: as §1

LOX IMVI = experiment: NCI-60 five-dose SRB assay; format: cell-based; settings: Homo sapiens, Melanoma, five-dose test
In short: as §1

EKVX = experiment: NCI-60 five-dose SRB assay; format: cell-based; settings: Homo sapiens, NSCL cancer, five-dose test
In short: as §1

HCT-15 = experiment: NCI-60 five-dose SRB assay; format: cell-based; settings: Homo sapiens; HCT-15, Colon cancer, five-dose test
In short: as §1

RXF 393 = experiment: NCI-60 five-dose SRB assay; format: cell-based; settings: Homo sapiens; RXF 393, Renal cancer, five-dose test
In short: as §1

SNB-19 = experiment: NCI-60 five-dose SRB assay; format: cell-based; settings: Homo sapiens; SNB-19, CNS cancer, five-dose test
In short: as §1

SNB-75 [3] = experiment: NCI-60 five-dose SRB assay; format: cell-based; settings: Homo sapiens; SNB-75, CNS cancer, five-dose test
In short: as §1

SW-620 = experiment: NCI-60 five-dose SRB assay; format: cell-based; settings: Homo sapiens; SW-620, Colon cancer, five-dose test
In short: as §1

NCI-H322M = experiment: NCI-60 five-dose SRB assay; format: cell-based; settings: Homo sapiens, NSCL cancer, five-dose test
In short: as §1

RPMI-8226 = experiment: NCI-60 five-dose SRB assay; format: cell-based; settings: Homo sapiens; RPMI-8226, Leukemia, five-dose test
In short: as §1

M14 = experiment: NCI-60 five-dose SRB assay; format: cell-based; settings: Homo sapiens; M14, Melanoma, five-dose test
In short: as §1

786-0 = experiment: NCI-60 five-dose SRB assay; format: cell-based; settings: Homo sapiens; 786-0, Renal cancer, five-dose test
In short: as §1

K-562 = experiment: NCI-60 five-dose SRB assay; format: cell-based; settings: Homo sapiens, K562; K-562, Leukemia, five-dose test
In short: as §1

MALME-3M = experiment: NCI-60 five-dose SRB assay; format: cell-based; settings: Homo sapiens, Melanoma, five-dose test
In short: as §1

SK-MEL-28 = experiment: NCI-60 five-dose SRB assay; format: cell-based; settings: Homo sapiens; SK-MEL-28, Melanoma, five-dose test
In short: as §1

A549/ATCC = experiment: NCI-60 five-dose SRB assay; format: cell-based; settings: Homo sapiens, NSCL cancer, five-dose test
In short: as §1

BT-549 = experiment: NCI-60 five-dose SRB assay; format: cell-based; settings: Homo sapiens; BT-549, Breast cancer, five-dose test
In short: as §1

CCRF-CEM = system: CCRF-CEM; parameters: method as in PMID 32745753; settings: Leukemia; cited from earlier work
SK-MEL-5 = system: SK-MEL-5; parameters: method as in PMID 32745753; settings: SK-MEL-5, Melanoma; cited from earlier work
NCI-H23 = system: NCI-H23; parameters: method as in PMID 32745753; settings: NCI-H23, NSCL cancer; cited from earlier work
MCF7 = system: MCF7; parameters: method as in PMID 32745753; settings: MCF7, Breast cancer; cited from earlier work
HS 578T = system: HS 578T; parameters: method as in PMID 32745753; settings: Breast cancer; cited from earlier work
SK-OV-3 = system: SK-OV-3; parameters: method as in PMID 32745753; settings: SK-OV-3, Ovarian cancer; cited from earlier work
SNB-75 [4] = system: SNB-75; parameters: method as in PMID 32745753; settings: SNB-75, CNS cancer; cited from earlier work
DU-145 = system: DU-145; parameters: method as in PMID 32745753; settings: DU-145, Prostate cancer; cited from earlier work
HT29 = system: HT29; parameters: method as in PMID 32745753; settings: HT29, Colon cancer; cited from earlier work
SK-MEL-2 = system: SK-MEL-2; parameters: method as in PMID 32745753; settings: SK-MEL-2, Melanoma; cited from earlier work
SF-295 = system: SF-295; parameters: method as in PMID 32745753; settings: SF-295, CNS cancer; cited from earlier work

T1 sequence (P15056 whole entry V600K): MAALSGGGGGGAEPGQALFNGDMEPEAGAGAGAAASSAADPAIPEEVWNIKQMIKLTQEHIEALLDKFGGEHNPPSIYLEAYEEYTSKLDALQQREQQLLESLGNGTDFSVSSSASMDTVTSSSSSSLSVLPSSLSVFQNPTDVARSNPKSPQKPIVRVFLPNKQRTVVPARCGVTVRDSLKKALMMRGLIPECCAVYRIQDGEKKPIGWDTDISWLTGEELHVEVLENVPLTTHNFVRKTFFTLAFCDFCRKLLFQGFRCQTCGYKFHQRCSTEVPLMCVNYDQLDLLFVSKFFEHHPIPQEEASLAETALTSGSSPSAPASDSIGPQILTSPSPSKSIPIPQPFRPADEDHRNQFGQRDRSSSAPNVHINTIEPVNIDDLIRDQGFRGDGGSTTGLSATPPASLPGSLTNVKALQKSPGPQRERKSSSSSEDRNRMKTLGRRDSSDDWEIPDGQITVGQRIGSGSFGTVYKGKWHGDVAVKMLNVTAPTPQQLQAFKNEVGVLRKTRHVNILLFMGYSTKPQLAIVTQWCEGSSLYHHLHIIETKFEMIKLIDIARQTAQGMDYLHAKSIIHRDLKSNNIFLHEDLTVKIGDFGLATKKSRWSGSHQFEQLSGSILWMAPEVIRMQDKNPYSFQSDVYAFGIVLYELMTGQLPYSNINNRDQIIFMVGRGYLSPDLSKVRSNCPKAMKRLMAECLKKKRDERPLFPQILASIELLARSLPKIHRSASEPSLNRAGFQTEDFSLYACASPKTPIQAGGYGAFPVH

**Q.** For `CN1CCCN(Cc2ccc(C(=O)Nc3cccc(Nc4ccc5c(O)cccc5n4)c3)cc2C(F)(F)F)CC1` [Compound 17b, N-(3-((5-hydroxyquinolin-2-yl)amino)phenyl)-4-((4-methyl-1,4-diazepan-1-yl)methyl)-3-(trifluoromethyl)benzamide], which GI50 ([1]; Homo sapiens, MOLT-4, all leukemia cell lines, except MOLT-4) is on record?
**A.** > 2000 nM

**Q.** What about the GI50 ([1]; Homo sapiens, colon cancer cell lines, range over lines) of the same molecule?
**A.** < 2000 nM

**Q.** And the GI50 ([1]; Homo sapiens, melanoma cell lines, range over lines)?
**A.** 1600 to 1890 nM

**Q.** What about the GI50 ([1]; melanoma cell lines, range over lines) of the same molecule?
**A.** < 2000 nM

**Q.** What about the IC50 (B-RAF^V600K) of the same molecule?
**A.** 61.6 ± 1 nM

**Q.** And the growth percent ([2]; MALME-3M, MDA-MB-435, SK-MEL-2, and UACC-62)?
**A.** less than -90

**Q.** What about the growth percent ([2]; melanoma LOX IMVI, SK-MEL-28, and SK-MEL-5) of the same molecule?
**A.** −100

**Q.** And the growth percent ([2]; melanoma SK-MEL-29, SK-MEL-5, and UACC-62)?
**A.** under −90%

**Q.** And the GI50 (UACC-257)?
**A.** 1600 nM

**Q.** What about the GI50 (NCI/ADR-RES) of the same molecule?
**A.** 6430 nM

**Q.** What about the GI50 (HOP-62) of the same molecule?
**A.** 2030 nM

**Q.** And the GI50 (KM12)?
**A.** 1980 nM

**Q.** What about the GI50 (SF-268) of the same molecule?
**A.** 2140 nM

**Q.** What about the GI50 (LOX IMVI) of the same molecule?
**A.** 1630 nM

**Q.** What about the GI50 (EKVX) of the same molecule?
**A.** 1820 nM

**Q.** What about the GI50 (HCT-15) of the same molecule?
**A.** 1930 nM

**Q.** And the GI50 (RXF 393)?
**A.** 1850 nM

**Q.** And the GI50 (SNB-19)?
**A.** 2030 nM

**Q.** What about the GI50 (SNB-75 [3]) of the same molecule?
**A.** 1320 nM

**Q.** And the GI50 (SW-620)?
**A.** 1950 nM

**Q.** And the GI50 (NCI-H322M)?
**A.** 3270 nM

**Q.** And the GI50 (RPMI-8226)?
**A.** 2890 nM

**Q.** What about the GI50 (M14) of the same molecule?
**A.** 1890 nM

**Q.** What about the GI50 (786-0) of the same molecule?
**A.** 2060 nM

**Q.** And the GI50 (K-562)?
**A.** 2180 nM

**Q.** And the GI50 (MALME-3M)?
**A.** 1700 nM

**Q.** What about the GI50 (SK-MEL-28) of the same molecule?
**A.** 1820 nM

**Q.** What about the GI50 (A549/ATCC) of the same molecule?
**A.** 3630 nM

**Q.** What about the GI50 (BT-549) of the same molecule?
**A.** 1800 nM

**Q.** Which GI50 (CCRF-CEM) does the source give for `CNC(=O)c1cc(Oc2ccc(NC(=O)Nc3ccc(Cl)c(C(F)(F)F)c3)cc2)ccn1` [Sorafenib] here?
**A.** 2200 nM

**Q.** And the GI50 (SK-MEL-5)?
**A.** 1500 nM

**Q.** And the GI50 (NCI-H23)?
**A.** 1800 nM

**Q.** And the GI50 (MCF7)?
**A.** 2800 nM

**Q.** What about the GI50 (HS 578T) of the same molecule?
**A.** 2600 nM

**Q.** And the GI50 (SK-OV-3)?
**A.** 2300 nM

**Q.** And the GI50 (SNB-75 [4])?
**A.** 3000 nM

**Q.** What about the GI50 (DU-145) of the same molecule?
**A.** 3300 nM

**Q.** What about the GI50 (HT29) of the same molecule?
**A.** 2200 nM

**Q.** And the GI50 (SK-MEL-2)?
**A.** 1800 nM

**Q.** And the GI50 (SF-295)?
**A.** 1600 nM
